Test results reported in patent publication US5000936A, “Methods for locally-treating allergic disorders with pharmaceutical preparations containing N-acetyl-aspartyl glutamic acid or its salts” (THEA (Therapeutique et Applications) S.A., priority 1983, dated 1991).
Counter-ions that a name gives are not always drawn. Where a SMILES comes first, the peptide text is derived from it.

What was measured:
[1] = metabolism after oral and parenteral administration (statement); type: in vivo; settings: oral and parenteral routes of administration
allergic conjunctivitis = test: trial on allergic conjunctivitis in the rabbit; type: in vivo; settings: n = 12 eyes
Source text: The experimental protocol has been established according to works by OKADA et al. (OKADA-SHIMADA, Invest. Ophthalmol. Vis. Sc. 1980, 19 2, 176-181).
The model of allergic conjunctivitis used consists in effecting a conjunctival immunization in rabbits by local injection of rabbit antibodies to bovine gammaglobulins. The conjunctivitis is then triggered by the inflammation of allergic origin thus provoked are observed as an increase in the weight of the conjunctiva, and as enhancement of the conjunctival capillary permeability to iodine-125 labeled rabbit serum albumin injected intravenously before the injection of the antigen.
Two hours after the injection of bovine gammaglobulins, the rabbits are sacrificed, and then the eyes are removed and the conjunctiva dissected out, weighed and submitted to radioactive counting.
Three parameters are recorded:
the weight of the conjunctiva,
the blood conjunctiva permeability index, evaluated as the ratio of the radioactivity of 1 mg of conjunctiva to that of 1 ml of blood,
the quantity of labeled serum albumin recovered in the conjunctiva.
To evaluate the protective effect of the preparation under investigation, several batches of six rabbits are formed, which receive 6 instillations of 2 eye-drops in each eye daily for 3.5 days before the injection of labeled serum albumin.
One batch of six normal rabbits, not tested and not subjected to provacation of the allergy, is also formed ("blank" batch), as well as a batch of six control rabbits receiving instillations of physiological serum before the triggering of the conjunctivitis ("conjunctivitis controls").

[2] = system: mast cells of the nasal mucosa; test: mast cell degranulation of nasal mucosa of guinea pig by instillation of 48/80; type: in vivo
Procedure: The test is based on the determination by microscopy of the number of granulated mast cells per unit area in the nasal mucosa of the guinea pig, and on the study of the administration of a histamine releasing substance --48/80--on this number of mast cells. Guinea pigs receive in each nostril, twice daily during 3 days. 0.1 ml of the product under investigation, 15 minutes before the nasal instillation of 0.1 ml of 48/80 in solution at 2 % concentration; the animals are sacrificed 1 hour after the last instillation.
After sacrifice, the nasal mucosa is removed, then fixed and stained with toluidine blue to allow selective staining of the granulated mast cells. For each animal, the mast cells contained in 100 microscopic fields are counted by microscopy.

[3] = system: chronic allergic conjunctivitis; test: double blind clinical study in chronic allergic conjunctivitis (Example IX); type: in vivo, patients
Procedure: The trial was performed in double blind. The objective was to determine the effects of the composition according to Example I.2.: an ophthalmic solution at 4 % concentration, on the ocular symptoms and inflammatory conjunctival signs of patients suffering from chronic allergic conjunctivitis, compared with the sodium cromoglycate in ophthalmic solution at 2 % concentration used in therapy. The results of this comparative study concern 33 patients, of both sexes, who were distributed randomly into two groups: received the composition according to Example I.2. during 2 weeks at the rate of 1 drop in each eye to be treated, 3 to 5 times daily. These patients then received sodium cromoglycate in eye-drops at 2 % concentration (commercial eye-drops) during two supplementary weeks and at the same dosage, 16 patients received the same eye-drops in the reverse order and for the same lengths of time. The random assortment of the patients ensured good homogeneity in the distribution between the two treatment groups, not only in respect of the clinical characteristics, but also in respect of the duration of administration of the eye-drops under trial, and the use of concomitant treatments.

[4] = system: sub-acute and chronic atopic conjunctivitis; test: clinical study in sub-acute and chronic atopic conjunctivitis (Example XII); type: in vivo; settings: 27 patients; at least one year on 2 % Cromoglycate, then two months 4 % NAAGA eye-drops four times daily
Procedure: Twenty seven patients suffering from sub-acute and chronic atopic conjunctivitis who were treated for at least one year on 2 % Cromoglycate eye-drops, were switched from Cromoglycate treatment to 4 % NAAGA eye-drops four times daily. Before and after two months treatment period with composition according to example I.2., the patients were checked objectively in order to score the severity of conjunctival livid hyperemia and the amount of exudate. Subjectively the patients were asked to assess the symptoms of itching, burning and photophobia. Objective and subjective assessments were scored by means of visual analog scales.

[5] = system: perennial allergic rhinitis; test: double-blind cross-over clinical study in perennial allergic rhinitis (Example XIII); type: in vivo, patients; settings: 2 sprays per nostril, 5 times per day, 2 weeks
Procedure: The aim of the present study was to determine the efficacy and tolerance of the composition according to example II.2., in the treatment of allergic rhinitis. For this purpose, a double-blind trial was undertaken versus a reference drug: disodium Cromoglycate in a 2 % nasal solution. The study involved 34 patients, suffering from perennial allergic rhinitis. Each patient was included in a cross-over treatment protocol, according to which the two drugs compared were administered successively during 2 treatment periods of 2 weeks each, at the dose of 2 sprays per nostril, 5 times per day.

ciliary movement = test: acute tolerance on ciliary movement, overall verdict; type: cell-based, guinea pigs or rabbits; settings: contact times which exceed 20 minutes
Source text: The technique used has been described under the name of microphotooscillography (L. G. CHEVANCE, J. F. LENNON: Etude des rythmes du battement ciliare (Study of rhythms of ciliary beating) Acta Otolaryng., 1970-70, 16-28)). In this study, guinea pigs or rabbits were used which were free of all clinical sign of infection of the airways. The animals are sacrificed, and then the nasal septum or trachea is dissected out. These tissues are placed in PBS survival medium and the superficial epithelium is removed by scraping, over an area of about 1 mm^2. This sample, which contains numerous ciliated cells in movement, is placed in an observation chamber under a special microscope equipped with a microphotoelectric system permitting the recording of ciliary beats in transillumination.
The measurement consists in recording the fluctuations in the light caused by the image, enlarged 500 times, of a cilium moving in front of the aperture of a diaphragm of suitable dimensions. After amplification, the fluctuations in light are recorded graphically.
Impairments of ciliary movement are translated as a decrease in the frequency of the ciliary beats. […]

**Q.** Which metabolism [1] does the source give for CC(=O)N[C@@H](CC(=O)O)C(=O)N[C@@H](CCC(=O)O)C(=O)O [NAAGA, N-acetyl-(alpha, beta)-aspartyl glutamic acid] (Ac-Asp-Glu-OH) here?
**A.** Its metabolism is “rapidly and extensively metabolized”.

**Q.** For O=C(O)c1cc(=O)c2c(OCC(O)COc3cccc4oc(C(=O)O)cc(=O)c34)cccc2o1 [sodium cromoglycate], which “Quantity of serum albumin in the conjunctiva” value (allergic conjunctivitis; 6 instillations of 2 eye-drops in each eye daily for 3.5 days, mean ± spread) is on record?
**A.** The value was 34.5 ± 13.6 µg.

**Q.** And the “Weight of the conjunctiva” value (allergic conjunctivitis)?
**A.** Its value is 411 ± 64 mg.

**Q.** And the “Blood-conjunctiva index (× 100)” value (allergic conjunctivitis; ratio of radioactivity of 1 mg of conjunctiva to that of 1 ml of blood, × 100)?
**A.** Its value is 4.7 ± 1.8.

**Q.** And the “Average number of granulated mast cells per microscopic field” value ([2]; 0.1 ml in each nostril twice daily during 3 days, 15 minutes before 48/80 at 2 %)?
**A.** Its value is 4.6.

**Q.** What about the “protective effect inferior to that of NAAGA by” value ([2]; 2 % concentration (commercial solution), same experimental condition) of the same compound?
**A.** The value was “about 40%”.

**Q.** What about the “patients with improvement in the ocular symptoms” value ([3]; 1 drop in each eye 3 to 5 times daily, 2 weeks per product, 33 patients) of the same compound?
**A.** Its value is “more than 65%”.

**Q.** What about the “preferences expressed by the patients” value ([3]; cross-over comparison of the two eye-drops) of the same compound?
**A.** The value was 33%.

**Q.** What about the “frequency of marginal objective control” value [4] of the same compound?
**A.** The value was 33%.

**Q.** What about the “frequency of marginal subjective control” value [4] of the same compound?
**A.** The value was 37%.

**Q.** What about the “Nasal and systemic tolerance” value [5] of the same compound?
**A.** Its value is “good and no side-effects were seen”.

**Q.** What about the “patients with results of treatment considered to be good” value [5] of the same compound?
**A.** The value was 61%.

**Q.** With CC(=O)N[C@@H](CC(=O)O)C(=O)N[C@@H](CCC(=O)O)C(=O)O [sodium salt] (Ac-Asp-Glu-OH) as the compound, how does the “acute tolerance on ciliary movement versus criterion (not more than 50% decrease after twenty minutes)” value (ciliary movement) read?
**A.** Its value is “Analogous results”.
